Reference: patent US20260324636A1, “COMPOSITION FOR PROVIDING PLANT WITH STRESS RESISTANCE” (KIRIN HOLDINGS KABUSHIKI KAISHA, priority 2022, published 2026)

Tests used:
Arabidopsis thaliana = assay: High-temperature stress resistance in liquid culture (leaf chlorosis, chlorophyll content), Example 1; type: in vivo, Arabidopsis thaliana (Col-0); details: for chlorosis of plants caused by the high-temperature treatment: 2 h before 44° C. for 60 minutes, then 22° C. 3 days; for chlorophyll content (fresh weight basis): 44° C. 60 minutes, vs group not subjected to the treatment
Description: A wild-type Arabidopsis thaliana strain (accession: Col-0) was used as an experimental material. Seeds were purchased from Inplanta Innovations Inc. (https://www.inplanta.jp/).
A liquid medium containing a ½ Murashige and Skoog Plant Salt Mixture (Nacalai) and 1 (w/v) % sucrose (FUJIFILM Wako) was used as a growth medium.
Arabidopsis thaliana seeds were sterilized with the use of a Kitchen Haiter® liquid (bleach for kitchen available from Kao Corporation) diluted to one-half concentration with distilled water for 3 minutes, washed 3 times with sterile distilled water, and then incubated at 4° C. overnight. The growth medium was dispensed at 1 ml/well on a 24-well microplate (IWAKI), 3 grains of the seeds were inoculated in each well, and the plate was transferred to the incubator (TOMY) to initiate growing. The incubator was maintained at a temperature of 22° C. for a daily cycle of 16 hours light and 8 hours darkness.
Before high-temperature treatment, a stock solution of N-acetylglutamic acid (Tokyo Chemical Industry Co., Ltd.) was added to Arabidopsis thaliana 7 days after seeding to the final concentration of 0, 0.01, 0.05, and 0.1 mM in the media, followed by incubation for 2 hours. Sterile distilled water was used as a solvent for the stock solution of N-acetylglutamic acid.
High-temperature treatment was performed with the use of an incubator. The plate was transferred to an incubator maintained at 44° C., incubated for 60 minutes to perform high-temperature treatment, and cultured in an incubator maintained at 22° C. for 3 days.
Plants are known to lose the green pigment chlorophyll from tissue such as leaves upon high-temperature stress exposure and become chlorotic as a consequence. Accordingly, the chlorophyll content was quantified after the high-temperature treatment to evaluate activity of N-acetylglutamic acid to enhance high-temperature stress resistance. The chlorophyll content was quantified in accordance with the method of Yamaguchi et al. (Nature Commun., Jun. 9, 2021, 12 [1]: 3480). To the collected plants, N,N-dimethylformamide (FUJIFILM Wako) was added at 1 ml/well, and incubation was performed at 4° C. in the dark overnight to extract the chlorophyll. Thereafter, the absorbance of the chlorophyll extract was measured at 647 nm (A647) and 664 nm (A664), respectively, using a microspectrophotometer (NanoPhotometer, Implen), and the chlorophyll content was calculated in accordance with the formula: 19.43×A647+8.05×A664. […] Thus, the chlorophyll content was calculated on a fresh weight basis to compare the chlorophyll content among samples.

H1ZAT12 = H1ZAT12 gene expression by real-time PCR, Example 13; type: in vivo, hop; details: 1 mM in medium, 20° C. for 2 hours, leaves; read-out: H1ZAT12 expression level, increase vs control
Description: The materials as used in Example 4 were used.
The medium as used in Example 4 were used.
In order to design primers for the target genes necessary for gene expression analysis by real-time PCR, homologs of Arabidopsis thaliana oxidation stress-responsive genes in hop were searched for. The amino acid sequences of Arabidopsis thaliana ZAT10 (AGI code: AT1G27730) and ZAT12 (AGI code: AT5G59820) were obtained from TAIR (https://www.arabidopsis.org/), and the nucleotide sequences of the gene homologs were obtained using Hopbase (http:/hopbase.cgrb.oregonstate.edu/). […] As the reference gene, the nucleotide sequence of the homolog of Arabidopsis thaliana EF1α (AGI code: AT1G18070) was obtained. The hop homolog genes were designated as H1ZAT10, H1ZAT12, and HIEF1α, respectively.
The leaves in the first and the second nodes from the apical buds of the tissue-cultured seedlings were sampled 1.5 months after the initiation of subculture and inoculated into a liquid medium consisting of a ½ Murashige and Skoog Plant Salt Mixture and 2 (w/v) % glucose. Specifically, a liquid medium was dispensed at 5 ml/well to a 6-well microplate, and 5 hop leaves were mounted thereon. […]
Thereafter, the relative expression levels of the target genes upon N-acetylglutamic acid treatment were calculated by the ΔΔCt method.

rice = assay: High-temperature stress resistance in rice (fresh weight of aboveground part), Example 3; type: in vivo, rice (variety: Nipponbare); details: 0.5 mM in medium, 24 h before 44° C. for 3 hours, then 22° C. 3 days
Method: A wild-type rice strain (the variety: Nipponbare) was used as an experimental material. Seeds were purchased from Nouken (https://nouken-seed.shop-pro.jp/).
A liquid medium consisting of a ½ Murashige and Skoog Plant Salt Mixture (Nacalai) was used as a growth medium.
With the use of a 50-ml Falcon tube, rice seeds were sterilized for 30 minutes with the use of a Kitchen Haiter® liquid (Kao Corporation) diluted to one-half concentration with distilled water for 30 minutes and washed 5 times with sterile distilled water. The tube was laid down, sterile distilled water was introduced thereinto in an amount that would sufficiently soak the washed seeds, and culture was performed in an incubator for 3 days to germinate the seeds. The incubator was maintained at a temperature of 30° C. for a daily cycle of 16 hours light and 8 hours darkness.
The growth medium was dispensed at 3 ml/well on a 12-well microplate (IWAKI) 3 days after the initiation of incubation, 3 grains of the germinated seeds were inoculated in each well, and the resultants were handled as experimental materials. […]
High-temperature treatment was performed with the use of an incubator. […] Thereafter, the plate was incubated in an incubator maintained at 22° C. for 3 days, plants were collected, and the fresh weight of the aboveground part excluding seeds and roots was quantified.

## CC(=O)N[C@@H](CCC(=O)O)C(=O)O [N-acetylglutamic acid]
Arabidopsis thaliana; 0.05 mM in medium
  chlorosis of plants caused by the high-temperature treatment: suppressed
Arabidopsis thaliana; 0.05 mM
  chlorophyll content (fresh weight basis): significantly higher
Arabidopsis thaliana; 0.1 mM in medium
  chlorosis of plants caused by the high-temperature treatment: suppressed
Arabidopsis thaliana; 0.1 mM
  chlorophyll content (fresh weight basis): significantly higher
H1ZAT12
  fold induction at 1000 µM: 1.9
rice
  decrease in the fresh weight of the aboveground part caused by high-temperature treatment: suppressed to a significant extent
